Reference: US20110046120A1, “TREATMENT OF IMPULSE CONTROL DISORDERS” (Mclean Hospital Corporation, priority 2006, published 2011)

How the values were obtained:
[1] = system: α2 adrenoceptor; conditions: cited from earlier work; for effect on yohimbine's effects: α2 agonists, Ghitza et al, 2005, Le et al, Lee et al, 2004
[2] = system: cocaine-dependent individuals; assay: self-rated subjective responses after intravenous cortisol, cocaine and saline in cocaine dependence; type: in vivo, human
Protocol: To assess cocaine/stress cross-sensitization, 12 cocaine-dependent individuals (age: 39.8±3.5 years) were administered cortisol (0.2 and 0.5 mg/kg), along with cocaine (0.2 mg/kg) and saline via intravenous boluses, in a double-blind, counterbalanced fashion. The individualized description of subjective responses were categorized into four components: craving, high, rush, and low, which were self-rated on a computerized continuous scale of 0 (none) to 3 (extreme) each minute for two minutes prior and 20 minutes following each infusion. Cocaine craving was proactively defined with the subject, clinically as an urge to use the drug and operationally in terms of the action the individual wanted to engage in to get cocaine. The ratings for high (well-being, self-confidence, and sociability), rush (perception of elevated heart rate and sweating, along with sensations of ‘speeding’), and low (dysphoric affect distinct from the high experience diminishment) were subjectively defined and not necessarily associated with a behavioral response or with the planning of physical activity. […] Cocaine elevated measures of craving (p<0.001); high (p<0.02); rush (p<10-4); and low (p=0.05). Saline produced no significant ratings changes.

[3] = system: NAc and other stress-associated regions; assay: monetary reward task with fMRI in PG subjects given yohimbine; type: in vivo, human; conditions: vs PG subjects given saline and normal controls
Protocol: During the gambling paradigm, subjects participated in a game of chance where they actually won or lost money while in the fMRI scanner. Signal changes that anticipate or accompany monetary gains and losses under varying conditions of controlled expectation were evaluated. Specifically, evaluated were: a) an “expectancy phase”, when a promising or unpromising roulette-like spinner (FIG. 4) is presented and b) an “outcome phase” when the arrow lands on one sector of that spinner, and thereby alters the subjects' winnings. It is known that, when applied to healthy controls, this task differentiates the fMRI time courses in the NAc, mPFC and SLEA and in related regions during expectancy vs. outcome phases.
At the start of the game, each subject was given an endowment of $50 and was told that (s)he might lose some or all of this stake, retain it or increase it. Each trial consisted of a “prospect phase”, when a spinner was presented and an “outcome phase” when a sector of the spinner was selected by the arrow and a corresponding amount was added to or subtracted from the subjects' winnings. […] The display was static for the first 0.5 second and then a superimposed arrow began to rotate. […] Only results of the last 18 trials were scored for each run since the initial trial was inserted into the run sequence purely to maintain counterbalancing. […]

[4] = Guthrie et al, 1990; cited from earlier work
[5] = system: healthy subjects and neuropsychiatric patients; conditions: cited from earlier work
[6] = system: reward circuitry; assay: cardiac gated fMRI BOLD imaging during cocaine infusion; type: in vivo, human; conditions: cocaine HCl 0.6 mg/kg infusion (max 40 mg), vs pre-infusion baseline, count out of 7 cocaine-dependent subjects
Text: We imaged reward circuitry in humans during cocaine infusion, using cardiac gated fMRI BOLD imaging to compensate for brainstem motion. We further used a clustered volume acquisition with sharpened slice profiles to cluster the acquisition of the brainstem volume and thus reduce the effects of imaging noise on cocaine-induced euphoria and craving. Eleven right-handed men (34±7 years old) with the DSM-IV diagnosis of cocaine dependence were studied. During imaging, subjects underwent a randomized double-blind infusion of either cocaine HCl (0.6 mg/kg up to maximum dose of 40 mg) or saline. Subjects were scanned on an Instascan device (1.5 T General Electric Signa; modified by Advanced NMR Systems, Wilmington, Mass.) using a head coil (General Electric). […] Automated shimming with second order shims was performed to improve Bo field homogeneity. Functional scans utilized cardiac gating with an asymmetric spin echo, T2*-weighted CVA (TR=6 RR, three slices per each of the first two RRs; TE=70; offset=−25 ms; 128×64 matrix; thickness=3.12×3.12 mm, through-plane resolution=7 mm; 200 images/slice). […] Seven matched sets of cocaine and saline infusion scans were interpretable after motion-correction. Statistical maps were constructed using Kolmogorov-Smirnov (KS) statistics and thresholded at the corrected p value for brain regions sampled, p<10-5. […]

[7] = system: reward circuitry; assay: fMRI with cardiac gating during low-dose morphine infusions
Protocol: Normal human reward circuitry was studied during low-dose morphine infusions using fMRI with cardiac gating in an unblinded study. […] Morphine and saline infusions were counter-balanced across subjects, and segregated in separate scan sessions 7 days apart. Four 2 mL infusions were given over 8 minutes, with each infusion lasting 20 seconds. The onset of each infusion was separated by a 2-minute interval. The total morphine dose divided evenly over the 4 infusions was 4 mg/70 kg. Respiratory rate, heart rate, O2 saturation, and end-tidal carbon dioxide concentration in the expired air (ETCO2) were monitored during the experiment in each individual for safety. Subjects were asked to rate their subjective high on a 10-point hedonic rating scale (0=no high; 10=max. high imaginable).

[8] = morphine 4 mg/70 kg total, 5 subjects

CCS(=O)(=O)N1CCC[C@@H]2CN3CCc4cc(OC)ccc4[C@@H]3C[C@@H]21.Cl [RS-79948-197]
reproduction of yohimbine's effects ([1]; selective α2 adrenoceptor antagonist, literature): replication of these effects

Clc1cccc(Cl)c1N=C1NCCN1 [clonidine]
effect on yohimbine's effects [1]: blockade of yohimbine's effects

C[C@]12CCC(=O)C=C1CC[C@@H]1[C@@H]2[C@@H](O)C[C@@]2(C)[C@H]1CC[C@]2(O)C(=O)CO [cortisol]
craving self-rating, time effect ([2]; cortisol 0.2 and 0.5 mg/kg iv bolus, F=3.11, p<0.001): significant increases in craving | craving self-rating, dose effect ([2]; cortisol 0.2 vs 0.5 mg/kg iv, F=0.06, p=0.81): no dose effect

COC(=O)[C@@H]1[C@H]2C[C@H]3c4[nH]c5ccccc5c4CCN3C[C@@H]2CC[C@@H]1O [yohimbine]
brain activity in the NAc and other stress-associated regions [3]: significantly elevated levels of brain activity | half-life [4]: about 45 minutes | tolerability ([5]; yohimbine 0.125 mg/kg to 0.4 mg/kg intravenous): generally well tolerated | reported adverse effects in clinical trials ([5]; yohimbine clinical trials): elevated blood pressure and heart rate, psychomotor agitation, irritability, tremor, headaches, skin flushing, dizziness, urinary frequency, nausea, vomiting and perspiration | PET brain activity in PTSD subjects ([5]; yohimbine infusions 0.4 mg/kg, ten PTSD subjects vs matched healthy controls, associated with increased anxiety self-reports): deactivations in prefrontal, temporal, parietal, and orbitofrontal cortexes

CC(Oc1c(Cl)cccc1Cl)C1=NCCN1 (stereo not shown) [lofexidine]
effect on yohimbine's effects [1]: blockade of yohimbine's effects

COC(=O)[C@H]1[C@@H](OC(=O)c2ccccc2)C[C@@H]2CC[C@H]1N2C [cocaine]
subjects with focal positive fMRI signal changes in the right NAc, amygdala, and mPFC [6]: ≥ 5

CN1CC[C@]23c4c5ccc(O)c4O[C@H]2[C@@H](O)C=C[C@H]3[C@H]1C5 [morphine]
adverse side-effects ([7]; morphine 4 mg/70 kg total over 4 infusions, drug naive male subjects): No adverse side-effects | fMRI activation in bilateral NAc and mPFC [7, 8]: significant focal activations | fMRI activation in the amygdala [7, 8]: subthreshold activation | subjective state (hedonic rating) ([7]; morphine 4 mg/70 kg total, data not shown): mild euphoria | fMRI activation in the VT ([7]; morphine 4 mg/70 kg total, with cardiac gating): left VT activation
